“Also recorded” adds a separate entry of the source.
What was measured:
[1] = tested on: human LDL receptor promoter; assay: LDL receptor promoter-luciferase reporter (construct A) in HepG2-ΔRaf-1:ER cells; format: cell-based; details: for transcriptional (activating) effect of ICI182,780 on the human LDL receptor promoter in presence of inhibitor: 1 μM ICI182,780, PD98059 50 μM, staurosporine 1 μM, curcumin 20 μM
Procedure: HepG2-ΔRaf-1:ER cells were cotransfected with LDL receptor promoter-luciferase reporter (plasmid A) and β-galactosidase-reporter. After 24 hours, cells were grown in a medium containing 0.2% serum for 12 h, followed by addition of 1 μM ICI182,780 for the last 24 h in the absence or presence of indicated inhibitor. […] Sterols (2 μg/ml 25-hydroxycholesterol and 10 μg/ml cholesterol) were added to examine sensitivity to sterols. After the treatment both luciferase and β-galactosidase activities were measured according to the method previously described (24). The results are presented as means ±S.E. and represent at least three individual experiments.
A human low density lipoprotein receptor promoter-luciferase construct A (24) was used to determine the response of the low density lipoprotein receptor promoter to activation of the p42/44^MAPK pathway. HepG2-ΔRaf-1:ER cells were transfected with 0.6 μg of reporter plasmid and 0.25 μg of SV-βGal plasmid by lipofectamine technique, as described previously (Mehta et al., 1996). Cells were washed after 12 h, and after another 12 h the cells were treated with 1 μM ICI182,780 for 36 h, and the controls were treated with ethanol. PBS-washed cells were harvested in 250 mM Tris-Cl, pH 7.5, and lysed in the lysis buffer. The luciferase activities of the cell lysates were measured according to the manufacture's recommendations (Promega). Luciferase assays were carried out in triplicate. In FIG. 6, the data are shown as means of three experiments and the fold induction represents the difference between the means of the samples with ICI182,780 and that of the control. Luciferase activity was normalized for β-galactosidase activity.
To study the role of serine/threonine protein kinases in the activation of the LDL receptor promoter by p42/44^MAPK, HepG2 cells were transiently transfected with construct A. Sixteen hours after transfection, the cells were treated for 1 h with the indicated inhibitor, and then with ICI182,780 in the continued presence of inhibitor.
Because the primary effect of p42/44^MAPK activation is exerted at the transcriptional levels, it was next determined whether ICI182,780 treatment modulated activity of the low density lipoprotein receptor promoter. A low density lipoprotein receptor promoter/luciferase reporter construct A (Mehta et al., 1996), containing promoter sequences from −273 to +35, was transfected into HepG2-ΔRaf-1:ER cells. Both sets of transfected cells were exposed to ICI182,780 for 36 h, after which luciferase activity was determined.

p42/44^MAPK = assay: p42/44MAPK phosphorylation, immunoblot with phospho-specific antibody in HepG2-ΔRaf-1:ER cells; format: cell-based, human
Procedure: HepG2 cells were treated with indicated doses of ICI182,780 for 4 hours. Phospho-specific p42/44^MAPK antibody was used to monitor p42/44^MAPK phosphorylation/activation, and phosphorylation-independent p42/44^MAPK antibody was used to measure total p42/44^MAPK protein.
(§1) Cells were scraped in phosphate-buffered saline (PBS) and centrifuged, and the pellet was resuspended in lysis buffer (50 mM Tris-Cl [pH 7.5], 150 mM NaCl, 10 mM MgCl2, 1 mM dithiothreitol, 10 mM NaF, 0.5 mM Na3VO4, 0.5% Nonidet P-40, 10 μg of aprotinin/ml, and 100 μg of phenylmethylsulfonyl fluoride per ml). Protein concentration was measured by the Bio-Rad protein assay. Protein (30 to 50 μg) was resolved by sodium dodecyl sulfate-polyacrylamide gel electrophoresis (SDS-PAGE) and transferred onto Immobilon P membranes (Millipore). The filter was blocked in 2.5% skim milk with 0.1% Tween 20 in PBS for 2 h followed by incubation with the specific antibody. The following antibodies were used: polyclonal rabbit antibodies against phosphorylation-independent p42/44^MAPK, phospho-specific-p42/44^MAPK, and phospho-specific or phosphorylation-independent Raf-1 kinase. Reactive proteins were detected with horseradish peroxidase-conjugated secondary antibodies and visualized with an ebb enhanced chemiluminescence detection kit (Amersham Pharmacia Biotech).

LDL receptor = LDL receptor mRNA expression, Northern blot in HepG2-ΔRaf-1:ER cells; format: cell-based, human
Procedure: Northern blotting was done under identical conditions to measure RNA levels of LDL receptor, SS, and actin genes.
Total RNA was analyzed by Northern blot for measuring LDL receptor mRNA levels.
LDL receptor and SS mRNA levels were determined by Northern blotting. Results shown are indicative of two separate experiments.
Cells either untreated or pretreated with different concentrations of sterols (1, 2 or 5 μg/ml 25-hydroxycholesterol and 10 μg/ml cholesterol) were induced with ICI182,780 (1 μM) for 4 h. Total RNA was subjected to Northern blotting to determine mRNA levels of LDL receptor and squalene synthase.
Total RNA was isolated by the TRIzol reagent (GIBCO-BRL), according to the manufacturer's protocol. RNA was stored under ethanol. Aliquots containing 20 μg RNA were electrophoresed through a 1%-agarose-formaldehyde gel and transferred to a nylon membrane (BioRad) followed by hybridization. Hybridization probes for LDL receptor, actin, and SS, labeled with ^32P, were prepared using the M13 universal primer. Hybridizations were performed at 45° C., and after final washing at 55° C. for 30 min, filters were exposed to Kodak x-ray film. The relative intensities of specific bands were determined densitometrically within the linear range of film on a model 300A laser densitometer (Molecular Dyanamics) using Image Quant software.

Raf-1 kinase = Raf-1 kinase phosphorylation, immunoblot in HepG2-ΔRaf-1:ER cells; format: cell-based, human; details: 30 min pretreatment, then 1 μM ICI182,780
Procedure: Total cell extracts were subjected to immunoblotting using the phosphorylation-independent and phospho-specific Raf-1 kinase antibodies. The same blot was later probed with the phospho-specific p42/44^MAPK antibody.
as §1

HepG2-ΔRaf-1:ER cells [2] = assay: Colony staining (colony formation); format: cell-based, human; details: maintained with ICI182,780; results not shown
Procedure: Cells were seeded at a density of 10,000 cells per 60 mm dish and maintained with or without ICI182,780 for varying periods. Colonies were stained by addition of 0.5 ml methylene blue solution for 30 min followed by washing.

HepG2-ΔRaf-1:ER cells [3] = assay: Light microscopic examination of cell morphology; format: cell-based; details: 1 μM ICI182,780, 24 h
Procedure: Cells treated with 1 μM of the ICI182,780 for 24 h were examined by optical microscopy. […] Representative photomicrographs of HepG2-ΔRaf-1:ER cells either untreated or treated with ICI182,780 were taken at low and high cell density regions of the cultured plate by using microscope.
The phenotype seen in ICI182,780-treated cells may resemble the situation of terminal differentiation, in which cells (for example, neurons) show differentiation in the absence of DNA replication.

cyclin A = assay: Cyclin A protein expression, immunoblot; format: cell-based, human; details: 1 μM ICI182,780
Procedure: (§2) Cells were cultured in the absence or presence of 1 μM ICI182,780. Equal amounts of total protein (40 μg) were resolved by SDS-PAGE, transferred to Immobilon P membrane and probed with antibodies specific for cyclin A and p21^Cip.
as §1

HepG2-ΔRaf-1:ER cells [4] = assay: Cell cycle analysis by propidium iodide FACS; format: cell-based, human; details: 1 μM ICI182,780, 18 h and 36 h
Procedure: The percentage of cells in the G1, S and G2 phases of the cell cycle is given for the control and ICI182,780 treated cells.
Cells (5×10^5) were seeded on 100 mm dishes and 2 days later the medium was replaced with medium containing 1 μM ICI182,780. After 18 h and 36 h, attached cells were trypsinized, centrifuged, washed in phosphate-buffered saline, resuspended in 1 ml phosphate-buffered saline, fixed in 1 ml of cold ethanol for overnight at 4° C., centrifuged again, washed once with saline, and resuspended in 0.1% bovine serum albumin containing 50 μg/ml ribonuclease and 50 μg/ml propidium iodide (Sigma), and then analysed in a fluoroscence-activated cell sorter (FACSORT, Becton Dickinson). Data were analysed using the Cellfit program.

HepG2-ΔRaf-1:ER cells [5] = assay: DNA synthesis, [3H]thymidine incorporation; format: cell-based, human; details: ICI182,780 0 to 1 μM for 18 h or 1 μM over time
Procedure: Cells in a 24-well dishes were either treated with different ICI182,780 concentrations from 0 to 1 μM for 18 h (top panel) or with 1 μM of ICI182,780 for time periods as indicated in the abscissa of the graph (bottom panel). DNA synthesis was measured by the incorporation of [^3H]thymidine during the final 4 h. Each point represents the mean of three determinations and is representative of at least two independent experiments.
Proliferation was measured with the [^3H]thymidine uptake assay (Amersham), with [^3H]thymidine (1.0 μCi/ml) present in the medium for 4 h prior to harvesting.

HepG2-ΔRaf-1:ER cells [6] = assay: Growth curves of HepG2-ΔRaf-1:ER cells (cell counting); format: cell-based, human; details: 1 μM ICI182,780
Procedure: (§3) Log-phase cells were seeded at 10^5 cells per 60 mm dish. After 36 h the medium was changed to medium containing either 1 μM ICI182,780 or no ICI182,780. At the indicated times, cells were trypsinized and counted.

HepG2 cells = assay: Growth curves of HepG2 cells (cell counting); format: cell-based, human; details: 1 μM ICI182,780
Procedure: as §3

p21^Cip1 = assay: p21Cip protein expression, immunoblot; format: cell-based, human
Procedure: as §2, §1

[7] = 30 min pretreatment, then 1 μM ICI182,780
[8] = clone B, ICI182,780 0 to 1 μM, 4 hours

Which results are given for `COc1cccc(-c2cc(=O)c3ccccc3o2)c1N` [PD98059, 2-(2′-amino-3′-methoxyphenyl)-oxanaphthalene-4-one]?
transcriptional (activating) effect of ICI182,780 on the human LDL receptor promoter in presence of inhibitor [1]: suppressed; p42/44MAPK phosphorylation and activation after PD98059 (p42/44^MAPK; 20 μM PD98059 for 30 min before ΔRaf-1:ER activation, data not shown): inhibited phosphorylation and activation; p42/44MAPK induced LDL receptor expression after PD98059 (LDL receptor; PD98059 pretreatment 30 min, then 1 μM ICI182,780): significantly inhibited

With `CN[C@@H]1C[C@H]2O[C@@](C)([C@@H]1OC)n1c3ccccc3c3c4c(c5c6ccccc6n2c5c31)C(=O)NC4` [staurosporine] as the molecule, how does the “transcriptional (activating) effect of ICI182,780 on the human LDL receptor promoter in presence of inhibitor” value [1] read?
Its value is “suppressed”.

And the “Raf-1 kinase phosphorylation after staurosporine pretreatment” value (Raf-1 kinase)?
The value was “inhibition of phosphorylation”.

And the “ICI182,780-induced p42/44MAPK phosphorylation after staurosporine pretreatment” value (p42/44^MAPK; [7])?
Its value is “inhibition of phosphorylation”.

And the “ICI182,780-induced LDL receptor expression after staurosporine pretreatment” value (LDL receptor; [7])?
The value was “loss of LDL receptor induction”.

How did the “ability to form colonies” value (HepG2-ΔRaf-1:ER cells [2]) turn out when `C[C@]12CC[C@@H]3c4ccc(O)cc4C[C@@H](CCCCCCCCC[S+]([O-])CCCC(F)(F)C(F)(F)F)[C@H]3[C@@H]1CC[C@@H]2O` (some centres unmarked) [ICI182,780] was run?
Its value is “reduced their ability to form colonies”.

What about the “morphological appearance of treated cells” value (HepG2-ΔRaf-1:ER cells [3]) of the same molecule?
Its value is “larger with neuronal like structures (i.e. filopodia), and less refractile than untreated cells”.

What about the “signs of cell stress or death” value (HepG2-ΔRaf-1:ER cells [3]) of the same molecule?
The value was “no indication that ICI-treated cells were under stress or dying; also recorded: did not exhibit membrane blebbing and/or increase in the number of rounded and/or detached cells”.

What about the “cyclin A protein expression” value (cyclin A) of the same molecule?
Its value is “strong down-regulation”.

And the cell cycle distribution (HepG2-ΔRaf-1:ER cells [4])?
Its cell cycle distribution is “modest increase in the fraction of cells found in the G2/M phase with a concomitant decrease in S phase”.

And the “lowest concentration at which promoter activation was detected” value ([1]; construct A)?
The value was 0.5 µM.

What about the “increase of luciferase expression driven by the LDL receptor promoter” value ([1]; construct A (-273 to +35), 1 μM ICI182,780 for 36 h, normalized for β-galactosidase) of the same molecule?
Its value is 4 to 6 fold.

What about the “luciferase activity, promoterless luciferase vector” value ([1]; transfected cells containing the promoterless luciferase vector, ICI182,780 treatment) of the same molecule?
Its value is “virtually no change in luciferase activity”.

And the “DNA synthesis ([3H]thymidine incorporation)” value (HepG2-ΔRaf-1:ER cells [5])?
Its value is “inhibition of DNA synthesis”.

What about the “cell growth of HepG2-ΔRaf-1:ER cells” value (HepG2-ΔRaf-1:ER cells [6]) of the same molecule?
The value was “arrested the growth”.

What about the “cell growth of HepG2 cells” value (HepG2 cells) of the same molecule?
The value was “no growth arrest”.

And the “time at which p42/44MAPK phosphorylation was clearly detected” value (p42/44^MAPK; 1 μM ICI182,780, 1 to 16 h)?
Its value is 1 h.

And the “time of maximal p42/44MAPK phosphorylation response” value (p42/44^MAPK; 1 μM ICI182,780, 1 to 16 h)?
Its value is 2 h.

What about the “increase in p42/44MAPK phosphorylation” value (p42/44^MAPK; [8]) of the same molecule?
Its value is “dependent on ICI182,780 concentration”.

What about the “time of maximal induction of LDL receptor expression” value (LDL receptor; 1 μM ICI182,780, 1 to 16 h) of the same molecule?
Its value is 3 to 4 h.

What about the “increase in LDL receptor expression” value (LDL receptor; [8]) of the same molecule?
Its value is “dependent on ICI182,780 concentration”.

What about the “duration of sustained high p21Cip1 levels” value (p21^Cip1; 1 μM ICI182,780) of the same molecule?
Its value is “at least 24 h”.

And the p21Cip1 expression (p21^Cip1; 1 μM ICI182,780, between 30 and 120 min of treatment)?
The p21Cip1 expression was “strong increase”.

Which results are given for `COc1cc(C=CC(=O)CC(=O)C=Cc2ccc(O)c(OC)c2)ccc1O` [curcumin, 1,7-bis [4-hydroxy-3-methoxyphenyl]-1,6-heptadiene-3,5-dione]?
transcriptional (activating) effect of ICI182,780 on the human LDL receptor promoter in presence of inhibitor [1]: completely suppressed; ICI182,780-dependent p42/44MAPK activation in presence of curcumin (p42/44^MAPK; curcumin before 1 μM ICI182,780): without affecting; increase in LDL receptor expression caused by ICI182,780 in presence of curcumin (LDL receptor; 60 μM curcumin, endogenous gene): totally suppressed; time of treatment at which the blocking effect was complete (LDL receptor; curcumin, kinetic studies): 4 to 6 h
